Laboratory results taken from article PMC10212518 (Biochemical Journal, 2023).

What was measured:
wild-type MDF cells = experiment: FACS cell death assay (PI uptake by flow cytometry) after necroptotic stimulus; format: cell-based, mouse; details: for inhibition of TSQ-induced necroptosis (PI uptake, flow cytometry): TSQ 24 h, control comparison at concentrations >1 µM; for inhibition of TSZ-induced necroptosis (PI uptake, flow cytometry): TSZ 24 h
Protocol: In the first protocol, WT MDF cells were seeded at 1.0 × 10^5 cells per well in 24-well plates and allowed to settle for 4 h at 37°C 10% CO2. […] After 24 h, cells were harvested, stained with 1 µg/ml propidium iodide (PI; Sigma–Aldrich) and PI positive cells were quantified by flow cytometry on a BD FACSCalibur instrument. In the second protocol, WT MDF cells were seeded at 5.0 × 10^4 cells in 500 µl per well in 24-well plates (Falcon, cat #353047) and allowed to settle for 24 h at 37°C 10% CO2. […] For all compounds and reagents, 0.5 µl of 1000× stocks were used. Cells were harvested, stained with 2 µg/ml propidium iodide (PI; Sigma–Aldrich) and PI positive cells were quantified by flow cytometry on a BD FACSCalibur instrument.

[1] = target: T1, endogenous mouse RIPK3 in MDF cells (Mus musculus, UniProt Q9QZL0); experiment: Cellular Thermal Shift Assay (CETSA); format: binding; details: 20 µM
T1 construct: endogenous in cells; host or cells: wild-type mouse dermal fibroblasts (MDF)
T1 sequence (Q9QZL0 whole entry): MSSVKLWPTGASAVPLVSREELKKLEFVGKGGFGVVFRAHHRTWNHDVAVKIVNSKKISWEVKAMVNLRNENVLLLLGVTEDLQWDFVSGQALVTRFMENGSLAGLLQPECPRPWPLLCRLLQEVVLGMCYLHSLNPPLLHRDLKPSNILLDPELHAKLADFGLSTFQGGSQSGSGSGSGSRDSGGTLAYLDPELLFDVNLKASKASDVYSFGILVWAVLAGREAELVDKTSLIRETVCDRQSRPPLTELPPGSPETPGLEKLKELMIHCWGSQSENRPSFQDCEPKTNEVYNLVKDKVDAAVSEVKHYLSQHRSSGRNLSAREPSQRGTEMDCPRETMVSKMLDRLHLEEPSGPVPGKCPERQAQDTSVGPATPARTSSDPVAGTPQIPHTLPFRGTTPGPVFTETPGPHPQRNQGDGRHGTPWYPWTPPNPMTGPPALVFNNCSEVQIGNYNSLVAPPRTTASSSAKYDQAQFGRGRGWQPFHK
Protocol: (§1) CETSA was performed as previously described. Briefly, Mlkl^−/− MDF cells were treated with doxycycline (20 ng/ml) for 4 h to induce expression of the MLKL Q343A mutant and then seeded to obtain 1.5 × 10^6 cells per temperature point. WT MDF or U937 cells were seeded to obtain 1.5 × 10^6 cells per temperature point. Cells were treated with DMSO or compounds (20 µM), as specified, for 1 h at 37°C 10% CO2. Cells were spun down, washed with 5 ml DPBS (Gibco), resuspended in DPBS containing cOmplete EDTA-free Protease Inhibitor Cocktail (Roche) and aliquoted into 100 µl samples per temperature point in PCR tubes. Live cell suspensions were heated across a temperature gradient (below) for 3 min in a T100 Thermal Cycler (Bio-Rad), cooled at room temperature for 3 min, snap frozen in liquid N2 and stored at −80°C overnight.
(§2) Samples were freeze-thawed once to lyse the cells. Soluble protein was separated from precipitated protein via centrifugation at 17 000×g for 30 min at 4°C. Soluble protein fractions were resolved by SDS–PAGE and analysed by Western blot. Briefly, 10 µl of each soluble protein sample was added to 10 µl of NuPAGE LDS Sample Buffer (Invitrogen) containing TCEP (Sigma–Aldrich). Samples were heated at 95°C for 10 min and then 15 µl of each sample was run on a gel along with the Precision Plus Kaleidoscope Prestained Protein Standard (Bio-Rad), using either NuPAGE 4–12% Bis-Tris 1.0 mm × 20-well Midi Gels (Invitrogen) with NuPAGE MES SDS Running Buffer (Invitrogen), or 4–15% Criterion TGX Stain-Free 26 well 15 µl Protein Gels (Bio-Rad) with Tris/Glycine Buffer (Bio-Rad). Western blots were performed according to the Western Blotting General Procedure above.

[2] = tested on: RIPK3 phosphorylation in MDF cells; experiment: Cellular phosphorylation assay, Western blot of phospho-RIPK3; format: cell-based, mouse; details: 10 µM, 2 h pre-treatment; TSI 2 h; wild-type MDF cells
Protocol: (§3) WT, Ripk1^−/−Mlkl^−/− and Ripk3^−/− MDF cell lines were seeded at 3.0 × 10^5 cells in 1 ml per well in 12-well plates (Corning, cat #3512) and allowed to settle for 24 h at 37°C 10% CO2. WT cells were treated with DMSO alone or compounds (1 µM or 10 µM), as specified, for 2 h. Ripk1^−/−Mlkl^−/− and Ripk3^−/− cells were left untreated. Cells were stimulated with TSI to induce phosphorylation of RIPK1 and RIPK3, or left unstimulated, for 2 h. For all compounds and reagents, 1 µl of 1000× stocks were used. Cells were harvested, washed with 500 µl DPBS (Gibco) and lysed in 25 µl of ice-cold RIPA buffer (25 mM Tris–HCl pH 7.5, 150 mM NaCl, 1% v/v Nonidet P-40, 1% w/v Na Deoxycholate, 0.1% w/v SDS) containing cOmplete EDTA-free Protease Inhibitor Cocktail (Roche), PhosSTOP Phosphatase Inhibitor Cocktail (Roche) and benzonase nuclease (Sigma–Aldrich) for 30 min on ice. Whole cell lysates were stored at −80°C until protein quantification, SDS–PAGE and Western blots were performed. Briefly, whole cell lysates were thawed on ice then quantified using the BCA Protein Assay with bicinchoninic acid solution (Sigma–Aldrich) and copper sulfate solution (Sigma–Aldrich). NuPAGE LDS Sample Buffer (Invitrogen) containing TCEP (Sigma–Aldrich) was added to the whole cell lysates to obtain 20 µg protein in 20 µl total volume per sample. Samples were heated at 95°C for 10 minutes and 20 µl of each sample was run on NuPAGE 4–12% Bis-Tris 1.0 mm × 12-well Mini Gels (Invitrogen) using NuPAGE MES SDS Running Buffer (Invitrogen) along with the Precision Plus Kaleidoscope Prestained Protein Standard (Bio-Rad). Western blots were performed according to the Western Blotting General Procedure above.

[3] = target: T2, endogenous mouse RIPK1 in MDF cells (Mus musculus, UniProt Q60855); experiment: Cellular Thermal Shift Assay (CETSA); format: binding; details: 20 µM
T2 construct: endogenous in cells; host or cells: wild-type mouse dermal fibroblasts (MDF)
T2 sequence (Q60855 1-656): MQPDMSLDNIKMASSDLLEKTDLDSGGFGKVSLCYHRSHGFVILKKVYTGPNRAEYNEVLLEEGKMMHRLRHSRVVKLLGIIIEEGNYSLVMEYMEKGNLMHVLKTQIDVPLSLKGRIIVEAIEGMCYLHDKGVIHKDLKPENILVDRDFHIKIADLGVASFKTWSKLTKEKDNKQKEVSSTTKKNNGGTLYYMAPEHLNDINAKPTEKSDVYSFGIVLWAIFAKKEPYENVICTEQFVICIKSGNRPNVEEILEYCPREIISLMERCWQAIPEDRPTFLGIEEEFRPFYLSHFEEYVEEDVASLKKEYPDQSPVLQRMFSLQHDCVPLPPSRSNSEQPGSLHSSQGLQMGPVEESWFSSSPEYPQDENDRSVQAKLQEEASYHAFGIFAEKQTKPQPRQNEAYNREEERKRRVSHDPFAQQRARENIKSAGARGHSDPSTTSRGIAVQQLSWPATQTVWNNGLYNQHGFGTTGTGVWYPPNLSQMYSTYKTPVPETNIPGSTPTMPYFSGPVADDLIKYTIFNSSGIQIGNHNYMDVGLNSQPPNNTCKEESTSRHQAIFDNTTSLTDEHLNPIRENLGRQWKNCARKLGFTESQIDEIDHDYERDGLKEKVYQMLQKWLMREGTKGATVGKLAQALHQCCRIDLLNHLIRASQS
Protocol: as §1, §2

[4] = tested on: RIPK1 phosphorylation in MDF cells; experiment: Cellular phosphorylation assay, Western blot of phospho-RIPK1; format: cell-based, mouse; details: 10 µM, 2 h pre-treatment; TSI 2 h; wild-type MDF cells
Protocol: as §3

Row | Structure (SMILES) | inhibition of TSQ-induced necroptosis (PI uptake, flow cytometry) (wild-type MDF cells) | inhibition of TSZ-induced necroptosis (PI uptake, flow cytometry) (wild-type MDF cells) | effect on thermal stability of endogenous mouse RIPK3 (CETSA) [1] | effect on RIPK3 phosphorylation (phospho-RIPK3 signal, Western blot) [2] | effect on thermal stability of endogenous mouse RIPK1 (CETSA) [3] | effect on RIPK1 phosphorylation (phospho-RIPK1 signal, Western blot) [4]
1 | Cc1cc(-c2cnc(N)c3c(-c4ccc5scnc5c4)csc23)n(C)n1 [GSK′843] | protection was comparable | more potent protection with the control inhibitors compared with ABT-869 |  |  |  | 
2 | CC(C)S(=O)(=O)c1ccc2nccc(Nc3ccc4scnc4c3)c2c1 [GSK′872] | protection was comparable | more potent protection with the control inhibitors compared with ABT-869 | had no effect on RIPK3 stability | almost completely inhibited |  | 
3 | CN1C(=O)NC(Cc2c[nH]c3c(Cl)cccc23)C1=O (centres unmarked) [Nec-1s] |  |  |  |  | increased the thermal stability | almost completely ablated RIPK1 phosphorylation
